Measurements reported in article PMC9736855, “Discovery of 3-Amino-1H-pyrazole-Based Kinase Inhibitors to Illuminate the Understudied PCTAIRE Family” (International Journal of Molecular Sciences, 2022).

Columns and labels:
Assay in all cases: DSF
Type in all cases: binding
[1] = target: T1, STK3 (Homo sapiens, UniProt Q13188)
T1 construct: purchased in-house DSF panel (SGC Frankfurt)
T1 sequence (Q13188 16-313): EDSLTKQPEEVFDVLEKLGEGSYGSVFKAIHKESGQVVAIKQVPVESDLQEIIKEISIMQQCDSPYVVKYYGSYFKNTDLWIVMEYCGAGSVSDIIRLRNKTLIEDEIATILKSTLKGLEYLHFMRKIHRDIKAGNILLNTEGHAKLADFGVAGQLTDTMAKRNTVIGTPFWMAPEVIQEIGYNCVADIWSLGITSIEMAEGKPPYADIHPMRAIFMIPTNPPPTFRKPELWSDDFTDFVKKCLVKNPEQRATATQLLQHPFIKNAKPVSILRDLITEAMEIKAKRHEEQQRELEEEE
Experimental: Recombinant protein kinase domains with a concentration of 2 μM were mixed with a 10 μM compound solution in DMSO, 20 mM HEPES, pH 7.5, and 500 mM NaCl. SYPRO Orange (5000×, Invitrogen) was added as a fluorescence probe (1 µl per mL). Subsequently, temperature-dependent protein unfolding profiles were measured, using the QuantStudio™ 5 realtime PCR machine (Thermo Fisher, Waltham, MA, USA). […] The temperature was raised with a step rate of 3 °C per minute. Data points were analyzed with the internal software (Thermal Shift SoftwareTM Version 1.4, Thermo Fisher) using the Boltzmann equation to determine the inflection point of the transition curve [56]. Differences in melting temperature are given as ΔTm values in °C. Measurements were performed in duplicates.

[2] = target: T2, MAPK13 (Homo sapiens, UniProt O15264)
T2 construct: purchased in-house DSF panel (SGC Frankfurt)
T2 sequence (O15264 1-365): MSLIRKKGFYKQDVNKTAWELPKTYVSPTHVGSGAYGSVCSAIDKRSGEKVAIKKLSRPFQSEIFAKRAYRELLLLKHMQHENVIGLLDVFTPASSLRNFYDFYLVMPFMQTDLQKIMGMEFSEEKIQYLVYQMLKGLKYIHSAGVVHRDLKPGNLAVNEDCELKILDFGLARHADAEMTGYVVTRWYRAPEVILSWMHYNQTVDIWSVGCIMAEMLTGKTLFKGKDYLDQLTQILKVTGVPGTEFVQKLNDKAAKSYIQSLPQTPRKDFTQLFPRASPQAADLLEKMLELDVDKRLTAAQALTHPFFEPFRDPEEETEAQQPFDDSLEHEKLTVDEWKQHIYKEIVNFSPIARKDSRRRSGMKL
Experimental: (§1) Measurements were performed in duplicates.

[3] = target: T3, CDC42BPA (Homo sapiens, UniProt Q5VT25)
T3 construct: purchased in-house DSF panel (SGC Frankfurt)
Experimental: as §1

[4] = target: T4, MELK (Homo sapiens, UniProt Q14680)
T4 construct: purchased in-house DSF panel (SGC Frankfurt)
Experimental: as §1

[5] = target: T5, STK39 (Homo sapiens, UniProt Q9UEW8)
T5 construct: purchased in-house DSF panel (SGC Frankfurt)
Experimental: as §1

[6] = target: T6, WNK1 (Homo sapiens, UniProt Q9H4A3)
T6 construct: purchased in-house DSF panel (SGC Frankfurt)
Experimental: as §1

[7] = target: T7, PLK4 (Homo sapiens, UniProt O00444)
T7 construct: purchased in-house DSF panel (SGC Frankfurt)
T7 sequence (O00444 2-275): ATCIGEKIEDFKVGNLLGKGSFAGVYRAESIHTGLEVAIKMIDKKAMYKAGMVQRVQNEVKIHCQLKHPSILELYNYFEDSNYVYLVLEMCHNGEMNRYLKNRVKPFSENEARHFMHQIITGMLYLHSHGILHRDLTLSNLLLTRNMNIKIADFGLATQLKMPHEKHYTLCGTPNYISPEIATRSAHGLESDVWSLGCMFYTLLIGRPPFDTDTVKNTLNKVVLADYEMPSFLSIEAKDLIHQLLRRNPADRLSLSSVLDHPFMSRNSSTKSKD
Experimental: as §1

[8] = target: T8, OSR1 (Homo sapiens, UniProt O95747)
T8 construct: purchased in-house DSF panel (SGC Frankfurt)
Experimental: as §1

[9] = target: T9, EPHA7 (Homo sapiens, UniProt Q15375)
T9 construct: purchased in-house DSF panel (SGC Frankfurt)
Experimental: as §1

[10] = target: T10, DCAMKL1 (Homo sapiens, UniProt O15075)
T10 construct: purchased in-house DSF panel (SGC Frankfurt)
T10 sequence (O15075 390-647): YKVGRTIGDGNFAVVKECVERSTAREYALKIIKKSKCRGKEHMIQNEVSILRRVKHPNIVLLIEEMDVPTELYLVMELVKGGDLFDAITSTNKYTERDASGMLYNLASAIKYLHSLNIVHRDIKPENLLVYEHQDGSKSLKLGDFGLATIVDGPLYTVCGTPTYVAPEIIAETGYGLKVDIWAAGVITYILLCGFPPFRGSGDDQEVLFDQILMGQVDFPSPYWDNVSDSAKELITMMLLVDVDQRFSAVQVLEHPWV
Experimental: as §1

[11] = target: T11, STK10 (Homo sapiens, UniProt O94804)
T11 construct: purchased in-house DSF panel (SGC Frankfurt)
Experimental: as §1

[12] = target: T12, MAP2K7 (Homo sapiens, UniProt O14733)
T12 construct: purchased in-house DSF panel (SGC Frankfurt)
T12 sequence (O14733 120-380): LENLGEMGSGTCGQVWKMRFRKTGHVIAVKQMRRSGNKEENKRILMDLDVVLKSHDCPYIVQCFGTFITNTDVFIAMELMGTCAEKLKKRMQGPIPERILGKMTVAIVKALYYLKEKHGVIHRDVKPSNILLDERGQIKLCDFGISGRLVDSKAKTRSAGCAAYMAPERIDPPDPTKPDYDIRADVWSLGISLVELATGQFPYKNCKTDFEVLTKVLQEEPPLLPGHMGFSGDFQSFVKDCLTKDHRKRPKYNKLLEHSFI
Experimental: as §1

[13] = target: T13, SLK (Homo sapiens, UniProt Q9H2G2)
T13 construct: purchased in-house DSF panel (SGC Frankfurt)
Experimental: as §1

[14] = target: T14, FLT1 (Homo sapiens, UniProt P17948)
T14 construct: purchased in-house DSF panel (SGC Frankfurt)
T14 sequence (P17948 801-1158): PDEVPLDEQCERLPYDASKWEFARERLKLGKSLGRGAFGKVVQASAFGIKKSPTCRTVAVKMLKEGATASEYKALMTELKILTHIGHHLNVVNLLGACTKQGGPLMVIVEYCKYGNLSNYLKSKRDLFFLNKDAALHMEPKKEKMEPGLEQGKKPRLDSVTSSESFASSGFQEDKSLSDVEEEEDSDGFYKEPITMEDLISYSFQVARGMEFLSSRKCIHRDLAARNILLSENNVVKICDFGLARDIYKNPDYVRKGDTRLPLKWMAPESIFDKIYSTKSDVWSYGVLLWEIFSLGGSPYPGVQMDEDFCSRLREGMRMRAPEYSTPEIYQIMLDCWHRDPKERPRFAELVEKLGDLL
Experimental: as §1

[15] = target: T15, CAMK4 (Homo sapiens, UniProt Q16566)
T15 construct: purchased in-house DSF panel (SGC Frankfurt)
T15 sequence (Q16566 46-300): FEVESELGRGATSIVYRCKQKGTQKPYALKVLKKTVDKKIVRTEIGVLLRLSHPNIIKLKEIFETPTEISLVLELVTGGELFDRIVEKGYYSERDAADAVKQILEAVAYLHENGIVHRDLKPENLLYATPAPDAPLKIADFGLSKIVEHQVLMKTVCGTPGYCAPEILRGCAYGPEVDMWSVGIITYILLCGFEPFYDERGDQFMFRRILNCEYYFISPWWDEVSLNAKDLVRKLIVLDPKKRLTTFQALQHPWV
Experimental: as §1

[16] = target: T16, DAPK1 (Homo sapiens, UniProt P53355)
T16 construct: purchased in-house DSF panel (SGC Frankfurt)
Experimental: as §1

T3 sequence (Q5VT25 1-414): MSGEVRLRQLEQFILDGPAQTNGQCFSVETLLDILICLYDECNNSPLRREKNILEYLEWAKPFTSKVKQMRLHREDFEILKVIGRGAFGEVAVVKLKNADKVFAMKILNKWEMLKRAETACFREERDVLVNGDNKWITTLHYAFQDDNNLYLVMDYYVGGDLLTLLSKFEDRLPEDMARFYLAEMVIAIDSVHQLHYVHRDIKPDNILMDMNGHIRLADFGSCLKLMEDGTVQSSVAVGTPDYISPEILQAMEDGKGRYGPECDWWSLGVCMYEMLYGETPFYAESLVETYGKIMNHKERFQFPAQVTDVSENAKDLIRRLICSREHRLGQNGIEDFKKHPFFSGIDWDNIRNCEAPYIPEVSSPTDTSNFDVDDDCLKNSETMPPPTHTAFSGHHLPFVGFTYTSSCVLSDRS
T16 sequence (P53355 1-285): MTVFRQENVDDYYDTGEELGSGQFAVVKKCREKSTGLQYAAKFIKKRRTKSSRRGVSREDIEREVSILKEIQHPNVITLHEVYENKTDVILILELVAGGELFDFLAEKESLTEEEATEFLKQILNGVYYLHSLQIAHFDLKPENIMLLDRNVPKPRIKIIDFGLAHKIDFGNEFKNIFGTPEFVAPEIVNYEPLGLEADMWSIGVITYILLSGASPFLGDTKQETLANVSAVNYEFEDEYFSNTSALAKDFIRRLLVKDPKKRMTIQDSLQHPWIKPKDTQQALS
T11 sequence (O94804 18-317): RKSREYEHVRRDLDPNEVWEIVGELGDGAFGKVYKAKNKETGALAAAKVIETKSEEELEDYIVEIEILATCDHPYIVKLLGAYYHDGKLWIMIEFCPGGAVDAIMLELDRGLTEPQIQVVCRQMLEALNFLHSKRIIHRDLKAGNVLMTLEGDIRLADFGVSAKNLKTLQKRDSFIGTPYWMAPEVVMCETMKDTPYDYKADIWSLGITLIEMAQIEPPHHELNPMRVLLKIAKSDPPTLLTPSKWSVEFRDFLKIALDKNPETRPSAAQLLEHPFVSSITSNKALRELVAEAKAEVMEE
T4 sequence (Q14680 whole entry): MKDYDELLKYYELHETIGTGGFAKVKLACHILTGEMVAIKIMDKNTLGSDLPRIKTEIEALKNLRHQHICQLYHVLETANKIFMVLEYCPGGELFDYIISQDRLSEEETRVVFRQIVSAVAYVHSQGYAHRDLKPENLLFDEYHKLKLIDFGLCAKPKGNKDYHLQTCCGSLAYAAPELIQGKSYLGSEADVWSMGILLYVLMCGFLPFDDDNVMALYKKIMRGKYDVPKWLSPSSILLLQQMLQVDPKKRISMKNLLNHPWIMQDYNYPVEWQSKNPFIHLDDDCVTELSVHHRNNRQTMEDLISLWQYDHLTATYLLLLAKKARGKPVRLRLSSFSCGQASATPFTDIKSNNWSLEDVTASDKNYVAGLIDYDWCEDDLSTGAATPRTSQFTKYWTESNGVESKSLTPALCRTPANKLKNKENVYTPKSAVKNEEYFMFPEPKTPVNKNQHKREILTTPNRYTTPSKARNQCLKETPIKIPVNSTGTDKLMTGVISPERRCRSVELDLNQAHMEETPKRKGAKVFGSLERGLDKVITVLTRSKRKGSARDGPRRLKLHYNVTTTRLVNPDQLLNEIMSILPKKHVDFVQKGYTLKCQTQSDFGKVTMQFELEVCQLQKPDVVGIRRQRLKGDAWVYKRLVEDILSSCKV
T6 sequence (Q9H4A3 206-483): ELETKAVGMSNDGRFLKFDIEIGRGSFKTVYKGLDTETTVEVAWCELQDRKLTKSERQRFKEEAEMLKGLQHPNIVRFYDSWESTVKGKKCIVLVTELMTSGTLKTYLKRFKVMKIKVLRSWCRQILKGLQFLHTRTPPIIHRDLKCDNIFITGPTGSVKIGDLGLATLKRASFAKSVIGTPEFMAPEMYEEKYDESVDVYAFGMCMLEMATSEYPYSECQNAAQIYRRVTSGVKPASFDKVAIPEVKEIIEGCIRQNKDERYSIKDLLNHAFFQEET
T9 sequence (Q15375 590-899): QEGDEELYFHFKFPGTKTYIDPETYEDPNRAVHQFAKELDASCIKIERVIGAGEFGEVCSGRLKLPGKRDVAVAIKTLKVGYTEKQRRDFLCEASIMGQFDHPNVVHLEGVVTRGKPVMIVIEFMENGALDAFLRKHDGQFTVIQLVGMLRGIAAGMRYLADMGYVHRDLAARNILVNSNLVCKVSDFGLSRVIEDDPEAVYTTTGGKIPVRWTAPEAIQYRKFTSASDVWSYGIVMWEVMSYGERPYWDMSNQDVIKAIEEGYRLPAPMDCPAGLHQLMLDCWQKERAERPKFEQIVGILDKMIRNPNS
T8 sequence (O95747 1-303): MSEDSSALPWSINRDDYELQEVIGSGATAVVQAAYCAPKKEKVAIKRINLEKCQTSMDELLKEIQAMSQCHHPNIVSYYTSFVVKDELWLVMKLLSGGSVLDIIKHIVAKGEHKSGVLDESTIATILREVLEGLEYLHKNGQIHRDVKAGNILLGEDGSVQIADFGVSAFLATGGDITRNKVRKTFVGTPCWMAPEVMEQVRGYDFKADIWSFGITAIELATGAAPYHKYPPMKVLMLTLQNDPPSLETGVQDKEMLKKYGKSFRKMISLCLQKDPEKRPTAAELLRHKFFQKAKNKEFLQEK

Structure (SMILES) | ΔTm STK3 [1] [°C] | ΔTm MAPK13 [2] [°C] | ΔTm CDC42BPA [3] [°C] | ΔTm MELK [4] [°C] | ΔTm STK39 [5] [°C] | ΔTm WNK1 [6] [°C] | ΔTm PLK4 [7] [°C] | ΔTm OSR1 [8] [°C] | ΔTm EPHA7 [9] [°C] | ΔTm DCAMKL1 [10] [°C] | ΔTm STK10 [11] [°C] | ΔTm MAP2K7 [12] [°C] | ΔTm SLK [13] [°C] | ΔTm FLT1 [14] [°C] | ΔTm CAMK4 [15] [°C] | ΔTm DAPK1 [16] [°C]
CC(C)OC(=O)c1cc(Nc2ccnc(NCc3ccc(NC(=O)OC(C)(C)C)cc3)n2)n[nH]1 [42d, isopropyl 3-((2-((4-((tert-butoxycarbonyl)amino)benzyl)amino)pyrimidin-4-yl)amino)-1H-pyrazole-5-carboxylate] | -1.0 | 1.0 | -0.7 | -0.8 | -0.6 | 0.1 | 3.7 | -0.8 | -3.1 | -2.4 | -0.7 | -0.3 | -0.6 | 0.6 | 0.4 | -0.3
CC(C)(C)OC(=O)Nc1ccc(CNc2nccc(Nc3cc(C(=O)OC(C)(C)C)[nH]n3)n2)cc1 [43d, tert-butyl 3-((2-((4-((tert-butoxycarbonyl)amino)benzyl)amino)pyrimidin-4-yl)amino)-1H-pyrazole-5-carboxylate] | 0.3 | 1.3 | -0.8 | 0.2 | -0.9 | -0.1 | 5.5 | -0.4 | -3.4 | -2.1 | -0.8 | -3.0 | 0.1 | 0.9 | 1.2 | -0.4
CN[C@@H]1C[C@H]2O[C@@](C)([C@@H]1OC)n1c3ccccc3c3c4c(c5c6ccccc6n2c5c31)C(=O)NC4 [staurosporine, reference compound] | 16.6 | 7.5 | 2.8 | 13.8 | 9.6 | 0.9 | 16.0 | 7.7 | 10.3 | 12.4 | 23.3 | 8.4 | 18.0 | 13.6 | 8.6 | 9.8
COC(=O)c1cc(Nc2ccnc(NCCOCCNC(=O)OC(C)(C)C)n2)[nH]n1 [21d, methyl 5-((2-((2-(2-((tert-butoxycarbonyl)amino)ethoxy)ethyl)amino)pyrimidin-4-yl)amino)-1H-pyrazole-3-carboxylate] | 1.6 | 0.5 | 0.5 | 0.8 | 1.8 | 0.9 | 3.0 | 0.3 | 1.3 | 1.5 | -0.7 | 0.7 | 1.0 | 2.0 | -0.2 | -2.4
N#CCc1ccc(Nc2nccc(Nc3cc(C4CC4)[nH]n3)n2)cc1 [compound 1, reference compound] | 11.6 | 8.0 | -0.1 | 9.8 | 7.6 | 1.1 | 11.1 | 5.6 | 4.9 | 8.9 | 10.1 | 12.0 | 8.8 | 10.6 | 5.4 | 4.9
COC(=O)c1cc(Nc2ccnc(NCc3ccc(NC(=O)OC(C)(C)C)cc3)n2)[nH]n1 [21i, methyl 5-((2-((4-((tert-butoxycarbonyl)amino)benzyl)amino)pyrimidin-4-yl)amino)-1H-pyrazole-3-carboxylate] | 1.2 | 1.0 | -0.5 | 0.9 | 2.1 | 0.6 | 4.1 | 0.6 | 0.6 | -0.6 | -0.7 | 0.5 | 0.2 | 2.2 | -0.4 | 0.6
